Measurements taken from patent US11224609B2, “Mithramycin derivatives having increased selectivity and anti-cancer activity” (University of Kentucky Research Foundation, priority 2017, dated 2022).
Where “and” joins values, the source holds several entries; their conditions need not be identical. Equal entries are not always repeated.

Columns and labels:
PANC-1 cells = test: 72 h GI50 assay in PANC-1; details: read-out: PANC-1 GI50; 72 h growth inhibition
[1] = test system: VCaP prostate cancer cells (TMPRSS2-ERG); test: 72 h GI50 assay in VCaP; details: for GI50: read-out: VCaP Prostate Cancer TMPRSS2-ERG GI50, 72 h growth inhibition, VCaP cells; for Ratio of median GI50 Prostate cells lacking TMPRSS2-ERG:VCaP: selectivity for VCaP over other prostate cancer cell lines
[2] = test system: 5838 Ewing sarcoma cells (EWS-ERG); test: 72 h GI50 assay in 5838; details: for GI50: read-out: 5838 Ewing Sarcoma EWS-ERG GI50, 72 h growth inhibition, 5838 cells; for Ratio of median GI50 Non-Ewing sarcoma cell lines (cf Table 3):5838: selectivity for 5838 cells
[3] = test system: ES-7 Ewing sarcoma cells (EWS-FLI1 Type 4); test: 72 h GI50 assay in ES-7; details: read-out: ES-7 EWS-FLI1 Type 4 GI50; 72 h growth inhibition
[4] = test system: PC-3 (prostate cancer, no ETS translocation) cell line; test: 72 h growth inhibition (GI50) assay in PC-3; details: read-out: PC-3 Prostate cancer No ETS Translocation GI50; 72 h growth inhibition, PC-3 cells
[5] = test system: Ewing sarcoma cell lines (TC-32, 5838, RD-ES, TC-71, A-673, ES-2, ES-7, ES-8); test: Median GI50 in panel of Ewing sarcoma cell lines; details: for Ratio of Median GI50 non-Ewing sarcoma:Ewing sarcoma (Selectivity Index): median GI50 non-Ewing panel over Ewing panel; for Selectivity Index ratio Analogues:MTM (1): selectivity index relative to MTM (1); for GI50: read-out: Median GI50 in Ewing sarcoma cell lines, median over 8 Ewing sarcoma cell lines, 72 h
[6] = test system: TC-71 Ewing sarcoma cells (EWS-FLI1 Type 1); details: 72 h growth inhibition
DU 145 cells = test: 72 h GI50 assay in DU 145; details: read-out: DU 145 GI50; 72 h growth inhibition
[7] = test system: RD-ES Ewing sarcoma cells (EWS-FLI1 Type 2); test: 72 h GI50 assay in RD-ES; details: read-out: RD-ES EWS-FLI1 Type 2 GI50; 72 h growth inhibition
[8] = test system: A-673 Ewing sarcoma cells (EWS-FLI1 Type 1); test: 72 h GI50 assay in A-673; details: read-out: A-673 EWS-FLI1 Type 1 GI50; 72 h growth inhibition
HCT 116 cells = test: 72 h GI50 assay in HCT 116; details: read-out: HCT 116 GI50; 72 h growth inhibition
A549 cells = test: 72 h GI50 assay in A549; details: read-out: A549 GI50; 72 h growth inhibition
[9] = test system: prostate cell lines lacking TMPRSS2-ERG; test: Median GI50 in prostate cell lines lacking TMPRSS2-ERG; details: read-out: Median GI50 in prostate cell lines, lacking TMPRSS2-ERG; unit inferred
[10] = test system: ES-8 Ewing sarcoma cells (EWS-FLI1 Type 2); test: 72 h GI50 assay in ES-8; details: read-out: ES-8 EWS-FLI1 Type 2 GI50; 72 h growth inhibition
[11] = test system: ES-2 Ewing sarcoma cells (EWS-FLI1 Type 3); test: 72 h GI50 assay in ES-2; details: read-out: ES-2 EWS-FLI1 Type 3 GI50; 72 h growth inhibition
DMS 114 cells = test: 72 h GI50 assay in DMS 114; details: read-out: DMS 114 GI50; 72 h growth inhibition
LNCaP cells = test: 72 h GI50 assay in LNCaP; details: read-out: LNCaP GI50; 72 h growth inhibition
HeLa cells = test: 72 h GI50 assay in HeLa; details: read-out: HeLa GI50; 72 h growth inhibition
[12] = test system: TC-32 (Ewing sarcoma, EWS-FLI1 Type 1) cell line; details: for TC-32 Ewing sarcoma EWS-FLI1 Type 1 GI50: 72 h growth inhibition, TC-32 cells; for GI50 ratio PC-3:TC-32: selectivity, GI50 in PC-3 over GI50 in TC-32
CMV promoter = CMV promoter luciferase reporter assay in stably transfected TC-32 cells (non-specific control); type: cell-based; details: 12 h; for CMV promoter driven luciferase signal: treated up to 10 μM
From the text: Full-length NR0B1 promoter sequence was PCR amplified using Q5 high-fidelity DNA polymerase (New England Biolabs, Ipswich, Mass.) from genomic DNA of TC-32 cells and cloned into the pGLUC-Basic 2 vector (New England Biolabs, Ipswich, Mass.). XhoI and KpnI restriction sites were incorporated into the primers. After restriction enzyme (New England Biolabs, Ipswich, Mass.) digest and purification by gel electrophoresis, the target amplicon was ligated into the pGLUC-Basic 2 vector using T4 DNA ligase (Thermo Fisher Scientific, Waltham, Mass.). Chemically competent TOP10 E. coli cells were used to propagate vectors under ampicillin selection (100 μg/mL) (Thermo Fisher Scientific, Waltham, Mass.). The resulting vectors were extracted and purified using GeneJET plasmid prep kit (Thermo Fisher Scientific, Waltham, Mass.). The purified vector was transfected into TC-32 cells using lipofectamine 3000 (Thermo Fisher Scientific, Waltham, Mass.) with subsequent G418 selection (1 mg/mL) (VWR, Radnor, Pa.). Separately, TC-32 cells were transfected with pCMV-Red Firefly Vector (Thermo Fisher Scientific, Waltham, Mass.) with subsequent puromycin selection (0.1 mg/mL) (Sigma, St. Louis, Mo.) as a control.
Selected TC-32 cells, expressing either NR0B1 or CMV luciferase reporter vectors, were seeded in clear 96-well plates at a density of 10,000 cells/well. […] After a 12 h treatment, media was removed and cells were washed 3 times with DPBS (Thermo Fisher Scientific, Waltham, Mass.). Cells were directly lysed on a plate shaker for 30 min at room temperature using 100 μL of passive membrane lysis solution. Lysates (80 μL) were transferred to a white luminescence plate. Luciferase substrate, either coelenterazine or D-luciferin (50 μL of 1× solution), for NR0B1 or CMV vectors, respectively, was added in a Glomax 96 microplate luminometer (Promega, Madison, Wis.) and luminescence was immediately measured. Delay before and after injections were set to the default of 0.4 s and a 10 s integration time was used. All reagents used in this assay were from the dual luciferase reporter assay system (Promega, Madison, Wis.). Concurrently, an additional 96 well plate was seeded and treated under the exact same conditions to determine cell viability using resazurin assay. Luminescence results were normalized to cell viability.

Compound	GI50 (PANC-1 cells)	GI50 [1]	Ratio of median GI50 Prostate cells lacking TMPRSS2-ERG:VCaP [1]	GI50 [2]	Ratio of median GI50 Non-Ewing sarcoma cell lines (cf Table 3):5838 [2]	GI50 [4]	Ratio of Median GI50 non-Ewing sarcoma:Ewing sarcoma (Selectivity Index) [5]	Selectivity Index ratio Analogues:MTM (1) [5]	TC-71 EWS-FLI1 Type 1 GI50 [6]	GI50 (DU 145 cells)	GI50 [7]	GI50 [8]	GI50 (HCT 116 cells)	GI50 (A549 cells)	GI50 [10]	GI50 [11]	GI50 (DMS 114 cells)	GI50 (LNCaP cells)	GI50 (HeLa cells)	TC-32 Ewing sarcoma EWS-FLI1 Type 1 GI50 [12]	also measured
COC(=O)C(Cc1cn(C)c2ccccc12)NC(=O)C(OC)C1Cc2cc3cc(OC4CC(OC5CC(O)C(O)C(C)O5)C(O)C(C)O4)c(C)c(O)c3c(O)c2C(=O)C1OC1CC(OC2CC(OC3CC(C)(O)C(O)C(C)O3)C(O)C(C)O2)C(O)C(C)O1 (stereo not shown) [Analogue 45]	1730 nM	307 nM	5.1	121 nM	13.3	1560 nM	2.4	1.6	696 nM	761 nM	539 nM	1010 nM	826 nM	2370 nM	1330 nM	1500 nM	1050 nM	1860 nM	1760 nM	139 nM	GI50 [3]: 672 nM; GI50 [9]: 1560 nM; fold increase in selectivity ([12]; PC-3:TC-32 selectivity, comparator not stated): ~4 fold; GI50 ratio PC-3:TC-32 [12]: 11.2
C=CCOc1ccc2[nH]cc(CC(NC(=O)C(OC)C3Cc4cc5cc(OC6CC(OC7CC(O)C(O)C(C)O7)C(O)C(C)O6)c(C)c(O)c5c(O)c4C(=O)C3OC3CC(OC4CC(OC5CC(C)(O)C(O)C(C)O5)C(O)C(C)O4)C(O)C(C)O3)C(=O)OC)c2c1 (stereo not shown) [Analogue 51]	532 nM	485 nM	0.9	24 nM	22.2	454 nM	1.1	0.7	636 nM	298 nM	843 nM	272 nM	380 nM	1540 nM	90 nM	5370 nM	2840 nM	2230 nM	1710 nM	53 nM	GI50 [3]: 1660 nM; GI50 [5]: 485 nM; GI50 [9]: 454 nM; GI50 ratio PC-3:TC-32 [12]: 8.6
COC(=O)C(Cc1c[nH]c2cc(F)ccc12)NC(=O)C(OC)C1Cc2cc3cc(OC4CC(OC5CC(O)C(O)C(C)O5)C(O)C(C)O4)c(C)c(O)c3c(O)c2C(=O)C1OC1CC(OC2CC(OC3CC(C)(O)C(O)C(C)O3)C(O)C(C)O2)C(O)C(C)O1 (stereo not shown) [Analogue 56]	386 nM	319 nM	0.6	466 nM	0.9	187 nM	0.9	0.6	640 nM	157 nM	1000 nM	262 nM	419 nM	941 nM	401 nM	3310 nM	2470 nM	1960 nM	1550 nM	27 nM	GI50 [3]: 1660 nM; GI50 [5]: 466 nM; GI50 [9]: 187 nM; GI50 ratio PC-3:TC-32 [12]: 6.9
COC(=O)C(Cc1ccccc1)NC(=O)C(Cc1c[nH]c2ccccc12)NC(=O)C(OC)C1Cc2cc3cc(OC4CC(OC5CC(O)C(O)C(C)O5)C(O)C(C)O4)c(C)c(O)c3c(O)c2C(=O)C1OC1CC(OC2CC(OC3CC(C)(O)C(O)C(C)O3)C(O)C(C)O2)C(O)C(C)O1 (stereo not shown) [Analogue 59, MTMSA-Trp-Phe]	152 nM	21 nM	3.6	39 nM	3.9	75 nM	2.4 and < 3	1.6	19 nM	67 nM	54 nM	238 nM	82 nM	1940 nM	74 nM	125 nM	18 nM	697 nM	397 nM	37 nM	GI50 [5]: 64 nM; CMV driven luciferase expression decreased down to (CMV promoter; concentrations between 1 and 10 μM): ~75%; CMV promoter driven luciferase signal (CMV promoter): decreased; CMV promoter driven luciferase signal (CMV promoter; listed as MTMSA-Trp-Phe (59)): reduces; GI50 ratio PC-3:TC-32 [12]: 2.0
